According to patent US10023558B2, “Compounds” (CHIESI FARMACEUTICI S.P.A., priority 2016, dated 2018):

These molecules were tested against T1, human neutrophil elastase (HNE) (Homo sapiens, UniProt P08246) (assay: HNE Enzyme Assay (fluorogenic peptide substrate MeOSuc-Ala-Ala-Pro-Val-AMC)). Details: human leukocyte elastase 0.00072 U/mL, substrate 100 μM, 25° C., 30 minutes, at least two separate experiments; read-out: HNE inhibition (IC50 values).
T1 construct: purchased Sigma E8140
T1 sequence (P08246 30-247 limits assumed): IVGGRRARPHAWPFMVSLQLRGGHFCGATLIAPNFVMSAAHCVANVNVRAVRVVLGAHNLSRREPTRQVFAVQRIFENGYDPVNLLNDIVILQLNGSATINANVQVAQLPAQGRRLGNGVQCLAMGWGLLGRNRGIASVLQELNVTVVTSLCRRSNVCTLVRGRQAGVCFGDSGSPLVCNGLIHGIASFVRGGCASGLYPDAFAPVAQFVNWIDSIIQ
Format: biochemical
Outline: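 Human leukocyte elastase (0.00072 U/mL) with 100 μM MeOSuc-AAPV-AMC in Tris pH 7.5 buffer with NaCl, CaCl2, Brij-35, 1% DMSO, 30 min at 25° C, stopped with soybean trypsin inhibitor. AMC fluorescence (ex 380/em 460 nm); IC50 from concentration-response as % inhibition of control, at least two experiments.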

IC50 [nM]	Compound
< 1	Cc1cc(C[N+](C)(C)[C@H]2CC[C@H](NC(=O)n3c(-c4ccnn4-c4ccc(C#N)cc4)c(C)n(-c4cccc(C(F)(F)F)c4)c3=O)CC2)no1 [Example 75, (4-{[5-[2-(4-Cyano-phenyl)-2H-pyrazol-3-yl]-4-methyl-2-oxo-3-(3-trifluoromethyl-phenyl)-2,3-dihydro-imidazole-1-carbonyl]-amino}-cyclohexyl)-dimethyl-(5-methyl-isoxazol-3-ylmethyl)-ammonium chloride]
< 1	Cc1c(-c2ccnn2-c2ccc(C#N)cc2)n(C(=O)N[C@H]2C[C@H](C[N+](C)(C)C)C2)c(=O)n1-c1cccc(C(F)(F)F)c1 [Example 68, (Trans-3-{[5-[2-(4-cyano-phenyl)-2H-pyrazol-3-yl]-4-methyl-2-oxo-3-(3-trifluoromethyl-phenyl)-2,3-dihydro-imidazole-1-carbonyl]-amino}-cyclobutylmethyl)-trimethyl-ammonium benzene sulfonate]
< 1	CC[n+]1ccc([C@H](C)NC(=O)n2c(-c3ccnn3-c3ccc(C#N)cc3)c(C)n(-c3cccc(C(F)(F)F)c3)c2=O)cc1 [Example 42, 4-((S)-1-{[5-[2-(4-Cyano-phenyl)-2H-pyrazol-3-yl]-4-methyl-2-oxo-3-(3-trifluoromethyl-phenyl)-2,3-dihydro-imidazole-1-carbonyl]-amino}-ethyl)-1-ethyl-pyridinium benzene sulfonate]
< 1	Cc1c(-c2ccnn2-c2ccc(C#N)cc2)n(C(=O)N[C@H]2CC[C@H](C(=O)NC3CC[N+](C)(C)CC3)CC2)c(=O)n1-c1cccc(C(F)(F)F)c1 [Example 90, 4-[(Trans-4-{[5-[2-(4-cyano-phenyl)-2H-pyrazol-3-yl]-4-methyl-2-oxo-3-(3-trifluoromethyl-phenyl)-2,3-dihydro-imidazole-1-carbonyl]-amino}-cyclohexanecarbonyl)-amino]-1,1-dimethyl-piperidinium benzene sulfonate]
< 1	Cc1c(-c2ccnn2-c2ccc(C#N)cc2)n(C(=O)NC(C)(C)c2ncc(C[N+](C)(C)C)o2)c(=O)n1-c1cccc(C(F)(F)F)c1 [Example 78, [2-(1-{[5-[2-(4-Cyano-phenyl)-2H-pyrazol-3-yl]-4-methyl-2-oxo-3-(3-trifluoromethyl-phenyl)-2,3-dihydro-imidazole-1-carbonyl]-amino}-1-methyl-ethyl)-oxazol-5-ylmethyl]-trimethyl-ammonium benzene sulfonate]
< 1	Cc1c(-c2ccnn2-c2ccc(C#N)cc2)n(C(=O)NC2(c3ncc(C[N+](C)(C)C)o3)CC2)c(=O)n1-c1cccc(C(F)(F)F)c1 [Example 79, [2-(1-{[5-[2-(4-Cyano-phenyl)-2H-pyrazol-3-yl]-4-methyl-2-oxo-3-(3-trifluoromethyl-phenyl)-2,3-dihydro-imidazole-1-carbonyl]-amino}-cyclopropyl)-oxazol-5-ylmethyl]-trimethyl-ammonium benzene sulfonate]
< 1	Cc1c(-c2ccnn2-c2ccc(C#N)cc2)n(C(=O)N[C@H]2CC[C@H](C[N+](C)(C)Cc3ccccc3)CC2)c(=O)n1-c1cccc(C(F)(F)F)c1 [Example 30, Benzyl-(trans-4-{[5-[2-(4-cyano-phenyl)-2H-pyrazol-3-yl]-4-methyl-2-oxo-3-(3-trifluoromethyl-phenyl)-2,3-dihydro-imidazole-1-carbonyl]-amino}-cyclohexylmethyl)-dimethyl-ammonium bromide]
< 1	Cc1c(-c2ccnn2-c2ccc(C#N)cc2)n(C(=O)N[C@H]2C[C@@H]3CN(C(=O)OC(C)(C)C)C[C@@H]3C2)c(=O)n1-c1cccc(C(F)(F)F)c1 [Example 12, (3aR,5S,6aS)-5-{[5-[2-(4-Cyano-phenyl)-2H-pyrazol-3-yl]-4-methyl-2-oxo-3-(3-trifluoromethyl-phenyl)-2,3-dihydro-imidazole-1-carbonyl]-amino}-hexahydro-cyclopenta[c]pyrrole-2-carboxylic acid tert-butyl ester]
< 1	Cc1c(-c2ccnn2-c2ccc(C#N)cc2)n(C(=O)N[C@@H](C)c2ccc(C[N+](C)(C)C)cc2)c(=O)n1-c1cccc(C(F)(F)F)c1 [Example 58, [4-((S)-1-{[5-[2-(4-Cyano-phenyl)-2H-pyrazol-3-yl]-4-methyl-2-oxo-3-(3-trifluoromethyl-phenyl)-2,3-dihydro-imidazole-1-carbonyl]-amino}-ethyl)-benzyl]-trimethyl-ammonium benzene sulfonate]
< 1	Cc1c(-c2ccnn2-c2ccc(C#N)cc2)n(C(=O)NC(C)C2CC[N+](C)(C)CC2)c(=O)n1-c1cccc(C(F)(F)F)c1 (stereo not drawn) [Example 35, 4-(1-{[5-[2-(4-Cyano-phenyl)-2H-pyrazol-3-yl]-4-methyl-2-oxo-3-(3-trifluoromethyl-phenyl)-2,3-dihydro-imidazole-1-carbonyl]-amino}-ethyl)-1,1-dimethyl-piperidinium benzene sulfonate]
< 1	Cc1c(-c2ccnn2-c2ccc(C#N)cc2)n(C(=O)N[C@@H](C)C(=O)N2CCC([N+](C)(C)C)CC2)c(=O)n1-c1cccc(C(F)(F)F)c1 [Example 69, [1-((S)-2-{[5-[2-(4-Cyano-phenyl)-2H-pyrazol-3-yl]-4-methyl-2-oxo-3-(3-trifluoromethyl-phenyl)-2,3-dihydro-imidazole-1-carbonyl]-amino}-propionyl)-piperidin-4-yl]-trimethyl-ammonium benzene sulfonate]
< 1	Cc1c(-c2ccnn2-c2ccc(C#N)cc2)n(C(=O)N[C@H]2CC[C@H](CNC(=O)CN(C)C)CC2)c(=O)n1-c1cccc(C(F)(F)F)c1 [Example 27, 5-[2-(4-Cyano-phenyl)-2H-pyrazol-3-yl]-4-methyl-2-oxo-3-(3-trifluoromethyl-phenyl)-2,3-dihydro-imidazole-1-carboxylic acid {trans-4-[(2-dimethylamino-acetylamino)-methyl]-cyclohexyl}-amide]
< 1	Cc1c(-c2ccnn2-c2ccc(C#N)cc2)n(C(=O)NC2(c3ncc(CN(C)C)o3)CC2)c(=O)n1-c1cccc(C(F)(F)F)c1 [Example 23, 5-[2-(4-Cyano-phenyl)-2H-pyrazol-3-yl]-4-methyl-2-oxo-3-(3-trifluoromethyl-phenyl)-2,3-dihydro-imidazole-1-carboxylic acid [1-(5-dimethylaminomethyl-oxazol-2-yl)-cyclopropyl]-amide]
1 to 10	Cc1c(-c2ccnn2-c2ccc(C#N)cc2)n(C(=O)N[C@H](C)c2cc[n+](C)cc2)c(=O)n1-c1cccc(C(F)(F)F)c1 [Example 52, 4-((R)-1-{[5-[2-(4-Cyano-phenyl)-2H-pyrazol-3-yl]-4-methyl-2-oxo-3-(3-trifluoromethyl-phenyl)-2,3-dihydro-imidazole-1-carbonyl]-amino}-ethyl)-1-methyl-pyridinium benzene sulfonate]
< 1	CC[N+](C)(C)C[C@H]1CC[C@H](NC(=O)n2c(-c3ccnn3-c3ccc(C#N)cc3)c(C)n(-c3cccc(C(F)(F)F)c3)c2=O)CC1 [Example 31, (Trans-4-{[5-[2-(4-cyano-phenyl)-2H-pyrazol-3-yl]-4-methyl-2-oxo-3-(3-trifluoromethyl-phenyl)-2,3-dihydro-imidazole-1-carbonyl]-amino}-cyclohexylmethyl)-ethyl-dimethyl-ammonium benzene sulfonate]
